Laboratory results from PubChem BioAssay AID1845215 (Molecular Pharmacology Branch, DTP, NCI, 2023).
pIC50: −log10 of the molar value.

System: SW 1271 complex tumor spheroid viability
Experiment: Anticancer human tumor SW 1271 cell line growth inhibition;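 also: spheroids exposed to agents for seven days before readout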;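 as to viability, T/C: percent of DMSO vehicle control luminescence so 100% = vehicle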
Conditions: for pIC50: curve of first compound; for viability, T/C: stronger effect = lower value
How it was run: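 Complex tumor spheroids combined malignant cells with endothelial cells and mesenchymal stem cells. DNA-damaging drugs and DNA repair inhibitors were tested alone and in combination, at half-log dilutions down from clinical Cmax (top 10 microM if Cmax unknown), 0.25% DMSO final.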

[1] = second compound 30 pM, first compound 0.0316 µM
[2] = second compound 30 pM, first compound 0.1 µM
[3] = second compound 30 pM, first compound 0.316 µM
[4] = second compound 30 pM, first compound 1 µM
[5] = second compound 30 pM, first compound 3.16 µM
[6] = second compound 30 pM, first compound 10 µM
[7] = second compound 94.9 pM, first compound 0.0316 µM
[8] = second compound 94.9 pM, first compound 0.1 µM
[9] = second compound 94.9 pM, first compound 0.316 µM
[10] = second compound 94.9 pM, first compound 1 µM
[11] = second compound 94.9 pM, first compound 3.16 µM
[12] = second compound 94.9 pM, first compound 10 µM
[13] = second compound 0.0003 µM, first compound 0.0316 µM
[14] = second compound 0.0003 µM, first compound 0.1 µM
[15] = second compound 0.0003 µM, first compound 0.316 µM
[16] = second compound 0.0003 µM, first compound 1 µM
[17] = second compound 0.0003 µM, first compound 3.16 µM
[18] = second compound 0.0003 µM, first compound 10 µM
[19] = second compound 0.000949 µM, first compound 0.0316 µM
[20] = second compound 0.000949 µM, first compound 0.1 µM
[21] = second compound 0.000949 µM, first compound 0.316 µM
[22] = second compound 0.000949 µM, first compound 1 µM
[23] = second compound 0.000949 µM, first compound 3.16 µM
[24] = second compound 0.000949 µM, first compound 10 µM
[25] = second compound 0.003 µM, first compound 0.0316 µM
[26] = second compound 0.003 µM, first compound 0.1 µM
[27] = second compound 0.003 µM, first compound 0.316 µM
[28] = second compound 0.003 µM, first compound 1 µM
[29] = second compound 0.003 µM, first compound 3.16 µM
[30] = second compound 0.003 µM, first compound 10 µM

CC1COCCN1c1cc(-c2ccnn2C)c2ccnc(-c3ccn[nH]3)c2n1 (stereo not given) + COc1cc2c(cc1O)CCNC21CSC2c3c(OC(C)=O)c(C)c4c(c3C(COC1=O)N1C(O)C3Cc5cc(C)c(OC)c(O)c5C(C21)N3C)OCO4
pIC50 (second compound 30 pM): > 7.50 | pIC50 (second compound 94.9 pM): > 7.50 | pIC50 (second compound 0.0003 µM): > 7.50 | pIC50 (second compound 0.000949 µM): > 7.50 | pIC50 (second compound 0.003 µM): > 7.50 | viability, T/C [1]: 42.9% | viability, T/C [2]: 12.5% | viability, T/C [3]: 7.53% | viability, T/C [4]: 3.2% | viability, T/C [5]: 2.78% | viability, T/C [6]: 2.04% | viability, T/C [7]: 10.9% | viability, T/C [8]: 6.89% | viability, T/C [9]: 5.14% | viability, T/C [10]: 3.73% | viability, T/C [11]: 1.95% | viability, T/C [12]: 2.12% | viability, T/C [13]: 10.8% | viability, T/C [14]: 6.88% | viability, T/C [15]: 5.11% | viability, T/C [16]: 2.88% | viability, T/C [17]: 1.51% | viability, T/C [18]: 1.29% | viability, T/C [19]: 3% | viability, T/C [20]: 1.96% | viability, T/C [21]: 1.34% | viability, T/C [22]: 1.09% | viability, T/C [23]: 0.1% | viability, T/C [24]: 0.3% | viability, T/C [25]: 0.1% | viability, T/C [26]: 0.09% | viability, T/C [27]: 0.1% | viability, T/C [28]: 0.08% | viability, T/C [29]: 0.09% | viability, T/C [30]: 0.15%

COc1cc(C)[nH]c(=O)c1CN1CCc2c(Cl)cc(C(OC)C3COC3)c(Cl)c2C1=O (stereo not given) + COc1cc2c(cc1O)CCNC21CSC2c3c(OC(C)=O)c(C)c4c(c3C(COC1=O)N1C(O)C3Cc5cc(C)c(OC)c(O)c5C(C21)N3C)OCO4
pIC50 (second compound 30 pM): < 5.00 | pIC50 (second compound 94.9 pM): 5.28 | pIC50 (second compound 0.0003 µM): > 7.50 | pIC50 (second compound 0.000949 µM): > 7.50 | pIC50 (second compound 0.003 µM): > 7.50 | viability, T/C [1]: 101% | viability, T/C [2]: 96% | viability, T/C [3]: 96.4% | viability, T/C [4]: 89.6% | viability, T/C [5]: 86.8% | viability, T/C [6]: 77.1% | viability, T/C [7]: 65.9% | viability, T/C [8]: 75.3% | viability, T/C [9]: 67.4% | viability, T/C [10]: 64.4% | viability, T/C [11]: 57% | viability, T/C [12]: 40.9% | viability, T/C [13]: 33.3% | viability, T/C [14]: 37% | viability, T/C [15]: 34.2% | viability, T/C [16]: 38.3% | viability, T/C [17]: 36.6% | viability, T/C [18]: 37.1% | viability, T/C [19]: 5.93% | viability, T/C [20]: 5.35% | viability, T/C [21]: 4.91% | viability, T/C [22]: 3.61% | viability, T/C [23]: 7.88% | viability, T/C [24]: 2.67% | viability, T/C [25]: 0.11% | viability, T/C [26]: 0.12% | viability, T/C [27]: 0.11% | viability, T/C [28]: 0.11% | viability, T/C [29]: 0.11% | viability, T/C [30]: 0.16%

Cc1cc(C)c(CNC(=O)c2cc(-c3ccc(CN4CCOCC4)cc3)cc3c2cnn3C2CCCC2)c(=O)[nH]1 + COc1cc2c(cc1O)CCNC21CSC2c3c(OC(C)=O)c(C)c4c(c3C(COC1=O)N1C(O)C3Cc5cc(C)c(OC)c(O)c5C(C21)N3C)OCO4
pIC50 (second compound 30 pM): < 5.00 | pIC50 (second compound 94.9 pM): 6.01 | pIC50 (second compound 0.0003 µM): > 7.50 | pIC50 (second compound 0.000949 µM): > 7.50 | pIC50 (second compound 0.003 µM): > 7.50 | viability, T/C [1]: 86.2% | viability, T/C [2]: 92.9% | viability, T/C [3]: 90.4% | viability, T/C [4]: 87.4% | viability, T/C [5]: 84.5% | viability, T/C [6]: 66.2% | viability, T/C [7]: 59.6% | viability, T/C [8]: 63.3% | viability, T/C [9]: 66.6% | viability, T/C [10]: 49.8% | viability, T/C [11]: 40.7% | viability, T/C [12]: 34.4% | viability, T/C [13]: 32.9% | viability, T/C [14]: 35.7% | viability, T/C [15]: 34.1% | viability, T/C [16]: 30.3% | viability, T/C [17]: 29.3% | viability, T/C [18]: 24% | viability, T/C [19]: 2.96% | viability, T/C [20]: 14.8% | viability, T/C [21]: 2.88% | viability, T/C [22]: 3.26% | viability, T/C [23]: 1.94% | viability, T/C [24]: 1.96% | viability, T/C [25]: 0.23% | viability, T/C [26]: 0.24% | viability, T/C [27]: 0.28% | viability, T/C [28]: 0.25% | viability, T/C [29]: 0.21% | viability, T/C [30]: 0.29%

[2H]c1nc(C)nc([2H])c1-c1cc(NC[C@@H](C)c2cccc3c(C(=O)NC)ccnc23)ncn1 + COc1cc2c(cc1O)CCNC21CSC2c3c(OC(C)=O)c(C)c4c(c3C(COC1=O)N1C(O)C3Cc5cc(C)c(OC)c(O)c5C(C21)N3C)OCO4
pIC50 (second compound 30 pM): < 5.00 | pIC50 (second compound 94.9 pM): < 5.00 | pIC50 (second compound 0.0003 µM): > 7.50 | pIC50 (second compound 0.000949 µM): > 7.50 | pIC50 (second compound 0.003 µM): > 7.50 | viability, T/C [1]: 104% | viability, T/C [2]: 93.9% | viability, T/C [3]: 98.7% | viability, T/C [4]: 96.4% | viability, T/C [5]: 93.4% | viability, T/C [6]: 90.1% | viability, T/C [7]: 60.4% | viability, T/C [8]: 68.6% | viability, T/C [9]: 75.6% | viability, T/C [10]: 69.9% | viability, T/C [11]: 63.4% | viability, T/C [12]: 51.7% | viability, T/C [13]: 33.1% | viability, T/C [14]: 35.1% | viability, T/C [15]: 33.4% | viability, T/C [16]: 30.1% | viability, T/C [17]: 34.2% | viability, T/C [18]: 31.6% | viability, T/C [19]: 10.5% | viability, T/C [20]: 4.86% | viability, T/C [21]: 4.58% | viability, T/C [22]: 3.72% | viability, T/C [23]: 2.73% | viability, T/C [24]: 1.89% | viability, T/C [25]: 0.1% | viability, T/C [26]: 0.09% | viability, T/C [27]: 0.1% | viability, T/C [28]: 0.09% | viability, T/C [29]: 0.09% | viability, T/C [30]: 0.17%
